Target: T1, Recombinant human renin (Homo sapiens, UniProt P00797)
T1 sequence (P00797 67-406): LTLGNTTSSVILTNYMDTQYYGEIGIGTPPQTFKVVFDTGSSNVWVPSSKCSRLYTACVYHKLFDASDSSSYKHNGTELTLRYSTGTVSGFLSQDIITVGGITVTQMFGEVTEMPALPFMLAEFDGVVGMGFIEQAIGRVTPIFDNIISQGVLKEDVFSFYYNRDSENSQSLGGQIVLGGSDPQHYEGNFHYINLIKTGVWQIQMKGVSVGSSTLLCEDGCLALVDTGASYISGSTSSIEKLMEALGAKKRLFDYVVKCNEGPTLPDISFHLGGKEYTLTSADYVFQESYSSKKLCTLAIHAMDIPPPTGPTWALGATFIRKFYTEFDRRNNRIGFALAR
Experiment: Inhibitory activity against human renin (fluorogenic peptide substrate)
Type: biochemical
Conditions: 37° C. for 1 hour, read-out: IC50

Row | SMILES | IC50 [nM]
1 | COCCCOc1cc([C@@H](C)N(C(=O)[C@H]2CNCCO2)C2CC2)cc2c1OCCC2 [Example 19] | 2.4
2 | CCc1cc([C@@H](C)N(C(=O)[C@H]2CNCCO2)C2CC2)cc(OCCNC(=O)OC)n1 [Example 109] | 3.4
3 | COCCCn1ncc2c(F)cc([C@@H](C)N(C(=O)[C@H]3CNCCO3)C3CC3)cc21 [Example 23] | 2.4
4 | COCCCCc1cc(C(C)N(C(=O)[C@H]2CNCCO2)C2CC2)cnc1OC (some centres unmarked) [Example 25] | 6.3
5 | COCCCCn1cc([C@@H](C)N(C(=O)[C@H]2CNCCO2)C2CC2)c2nccc(OC)c21 [Example 52] | 1.8
6 | COCCCN1CC(C)(C)c2ccc([C@@H](C)N(C(=O)[C@H]3CNCCO3)C3CC3)cc21 [Example 46] | 1.5
7 | COC(=O)NCCCn1nc([C@@H](C)N(C(=O)[C@H]2CNCCO2)C2CC2)c2cccc(F)c21 [Example 76] | 0.6
8 | COC(=O)NCCCn1cc([C@@H](C)N(C(=O)[C@H]2CNCCO2)C2CC2)nc1OC(C)C [Example 5, methyl (3-{4-[(1R)-1-{cyclopropyl[(2R)-morpholin-2-ylcarbonyl]amino}ethyl]-2-(propan-2-yloxy)-1H-imidazol-1-yl}propyl)carbamate] | 0.7
9 | COCCCOc1nc([C@@H](C)N(C(=O)[C@H]2CNCCO2)C2CC2)cc2ccccc12 [Example 32] | 3.3

Second part, the compound after the results:

Row | IC50 [nM] | SMILES
10 | 3.4 | COCCCc1nn(C)c2ccc([C@@H](C)N(C(=O)[C@H]3CNCCO3)C3CC3)cc12 [Example 26]
11 | 0.3 | COC(=O)NCCCn1cc([C@@H](C)N(C(=O)[C@H]2CNCCO2)C2CC2)c2cc(F)cnc21 [Example 75]
12 | 1.9 | COC(=O)NCCCc1cc(F)cc([C@@H](C)N(C(=O)[C@H]2CNCCO2)C2CC2)c1 [Example 92]

Same assay, conditions: 50% inhibitory concentration (IC50) against human renin, 37° C. for 1 hour

Row | SMILES | IC50 [nM]
13 | COC(=O)NCCCc1cc([C@@H](C)N(C(=O)[C@H]2CNCCO2)C2CC2)sc1-c1cccc(-c2nnn[nH]2)c1 [Example 263] | 0.2
14 | CCOC[C@H]1CO[C@@H](C(=O)N(C2CC2)[C@H](C)c2nn(CCCNC(=O)OC)c3nc(C)ccc23)CN1 [Example 273] | 1
15 | COC(=O)NCCCc1nc([C@H](C)N(C(=O)[C@H]2CNCCO2)C2CC2)sc1-c1ccc(F)cc1 [Example 402] | 2.3
16 | COC(=O)NCCCc1nc([C@@H](C)N(C(=O)[C@H]2CNCCO2)C2CC2)sc1-c1cn[nH]c1 [Example 421] | 2.2
17 | COC(=O)NCCCn1nc([C@@H](C)N(C(=O)[C@H]2CN[C@H](CC(F)F)CO2)C2CC2)c2ccc(C)nc21 [Example 307] | 6.6
18 | COC(=O)NCCCc1cc(C(C)N(C(=O)[C@H]2CNCCO2)C2CC2)cnc1O[C@H]1CCOC1 (some centres unmarked) [Example 440] | 1.9
19 | COC(=O)NCCCn1nc([C@H](C)N(C(=O)[C@H]2CNCCO2)C2CC2)cc1OC(C)C [Example 326] | 0.4
20 | COC[C@@H]1CNC[C@H](C(=O)N(C2CC2)[C@H](C)c2cn(CCCNC(=O)OC)c(C(F)(F)F)n2)O1 [Example 320] | 3.2
21 | COC(=O)NCCCn1cc([C@@H](C)N(C(=O)[C@H]2CNC[C@@H](C)O2)C2CC2)nc1-c1ccc(F)cc1 [Example 282] | 0.6
22 | COC(=O)NCCCc1cc([C@@H](C)N(C(=O)[C@H]2CN[C@@H](C)CO2)C2CC2)cc(C2CC2)n1 [Example 352] | 7.6
23 | COCCCCc1cc([C@@H](C)N(C(=O)[C@H]2CNCCO2)C2CC2)nn1-c1ccccc1 [Example 232] | 0.6
24 | COC(=O)NCCCc1nc([C@@H](C)N(C(=O)[C@H]2CNCCO2)C2CC2)sc1-c1ccnn1C [Example 415] | 0.6
25 | COCCCOc1cc([C@@H](C)N(C(=O)[C@H]2CNCCO2)C2CC2)nn1-c1ccccc1 [Example 361] | 0.8
26 | COC(=O)NCCCn1nc([C@@H](C)N(C(=O)[C@H]2CNCCO2)C2CC2)cc1-c1ccccc1 [Example 159] | 0.2
27 | COCCCc1cc([C@@H](C)N(C(=O)[C@H]2CNC[C@@H](COC)O2)C2CC2)cc(CCCNC(=O)OC)n1 [Example 382] | 3.6
28 | COC(=O)NCCCc1cc([C@@H](C)N(C(=O)[C@H]2CNC[C@@H](CF)O2)C2CC2)nn1-c1ccccc1 [Example 369] | 1.5
29 | COC[C@H]1CO[C@@H](C(=O)N(C2CC2)[C@H](C)c2nn(CCCNC(=O)OC)c3nc(C)ccc23)CN1 [Example 261] | 0.7
30 | COC(=O)NCCCc1cc([C@@H](C)N(C(=O)[C@H]2CN[C@@H](C)CO2)C2CC2)nn1-c1cccc(F)c1 [Example 370] | 1.7
31 | COC(=O)NCCCn1cc([C@H](C)N(C(=O)[C@H]2CN[C@@H](CC(F)F)CO2)C2CC2)nc1C1CCOCC1 [Example 318] | 1.3

Next, values leading:

Row | IC50 [nM] | SMILES
32 | 7 | COC(=O)NCCCn1nc([C@@H](C)N(C(=O)[C@H]2CNCC(C)(C)O2)C2CC2)c2ccc(C)nc21 [Example 166]
33 | 0.5 | COC(=O)NCCCn1nc([C@@H](C)N(C(=O)[C@H]2CNC[C@@H](C(=O)OC)O2)C2CC2)c2ccc(C)nc21 [Example 254]
34 | 2.7 | COC(=O)NCCCc1cc([C@@H](C)N(C(=O)[C@H]2CN[C@@H](C)CO2)C2CC2)cc(OC)n1 [Example 266]
35 | 0.2 | COC(=O)NCCCc1cc([C@@H](C)N(C(=O)[C@H]2CNCCO2)C2CC2)sc1-c1ncccc1C [Example 236]
36 | 3.5 | COC(=O)NCCCn1cc([C@@H](C)N(C(=O)[C@H]2CNCCO2)C2CC2)nc1C(F)(F)F [Example 319]
37 | 2.6 | COC(=O)NCCCc1cc([C@@H](C)N(C(=O)[C@H]2CNCCO2)C2CC2)sc1-c1cc(C(=O)OC)cc(C(F)(F)F)c1 [Example 260]
38 | 2.7 | COC(=O)NCCCc1cc(C(C)N(C(=O)[C@H]2CNCCO2)C2CC2)sc1C(C)CO (some centres unmarked) [Example 420]
39 | 3.1 | COC(=O)NCCCc1nc(C(C)N(C(=O)[C@H]2CNCCO2)C2CC2)sc1-c1cccnc1 (some centres unmarked) [Example 403]
40 | 8.4 | COC(=O)NCCCc1sc([C@@H](C)N(C(=O)[C@H]2CN[C@@H](C)CO2)C2CC2)nc1-c1cccc(Cl)c1 [Example 368]
41 | 0.4 | COC(=O)NCCCc1cc([C@@H](C)N(C(=O)[C@H]2CNC[C@@H](C)O2)C2CC2)cc(C2CC2)n1 [Example 342]
42 | 0.2 | COC(=O)NCCCn1cc([C@@H](C)N(C(=O)[C@H]2CNC[C@@H](C)O2)C2CC2)nc1-c1ccccc1 [Example 202]
43 | 3.1 | COC(=O)NCCCn1nc([C@@H](C)N(C(=O)[C@H]2CNC[C@@H](C(=O)N(C)C)O2)C2CC2)c2ccc(C)nc21 [Example 256]
44 | 6.3 | COCCCCn1cc([C@@H](C)N(C(=O)[C@H]2CNCCO2)C2CC2)c2ccnc(C)c21 [Example 134]
45 | 1.6 | COC(=O)NCCCc1cc(C2CC2)nc([C@@H](C)N(C(=O)[C@H]2CNCCO2)C2CC2)c1 [Example 133]
46 | 1.7 | COC(=O)NCCCc1cc(C(C)N(C(=O)[C@H]2CNCCO2)C2CC2)sc1-c1cccnc1N (some centres unmarked) [Example 422]
47 | 1.2 | COC(=O)NCCCc1cc([C@@H](C)N(C(=O)[C@H]2CNCCO2)C2CC2)nn1-c1ccc(C)cc1 [Example 231]
48 | 1.5 | CCc1c([C@@H](C)N(C(=O)[C@H]2CNCCO2)C2CC2)nn(CCCNC(=O)OC)c1-c1ccccn1 [Example 217]
49 | 2.4 | COC(=O)NCCCc1sc(C(C)N(C(=O)[C@H]2CNCCO2)C2CC2)cc1-c1cccnc1 (some centres unmarked) [Example 430]
50 | 3.9 | COC(=O)NCCCc1cc(C(C)N(C(=O)[C@H]2CNCCO2)C2CC2)sc1C(C)C(F)(F)F (some centres unmarked) [Example 405]

From US9556159B2, “Renin inhibitor” (MITSUBISHI TANABE PHARMA CORPORATION, priority 2012, dated 2017)
